# Experimental data: ChEMBL document CHEMBL5046268, “Synthesis, Biological Evaluation, and Molecular Modeling Studies of 3,4-Diarylpyrazoline Series of Compounds as Potent, Nonbrain Penetrant Antagonists of Cannabinoid-1 (CB1R) Receptor with Reduced Lipophilicity” (J Med Chem, 2022)
# pIC50, pKi: −log10 of the molar value. Calls of active or inactive are those of the source. No cut-off for these calls is given here.
# Tests used:
# Cannabinoid receptor 1 [1] = target: T1, Cannabinoid receptor 1 (Homo sapiens, UniProt P21554); assay: Displacement of [3H]- CP55940 from human CB1R expressed in CHO-K1 cells membrane by Cheng-Prusoff equation analysis; type: cell membranes, Cell membrane; conditions: for pKi: read-out: Ki
# T1 sequence (P21554 whole entry): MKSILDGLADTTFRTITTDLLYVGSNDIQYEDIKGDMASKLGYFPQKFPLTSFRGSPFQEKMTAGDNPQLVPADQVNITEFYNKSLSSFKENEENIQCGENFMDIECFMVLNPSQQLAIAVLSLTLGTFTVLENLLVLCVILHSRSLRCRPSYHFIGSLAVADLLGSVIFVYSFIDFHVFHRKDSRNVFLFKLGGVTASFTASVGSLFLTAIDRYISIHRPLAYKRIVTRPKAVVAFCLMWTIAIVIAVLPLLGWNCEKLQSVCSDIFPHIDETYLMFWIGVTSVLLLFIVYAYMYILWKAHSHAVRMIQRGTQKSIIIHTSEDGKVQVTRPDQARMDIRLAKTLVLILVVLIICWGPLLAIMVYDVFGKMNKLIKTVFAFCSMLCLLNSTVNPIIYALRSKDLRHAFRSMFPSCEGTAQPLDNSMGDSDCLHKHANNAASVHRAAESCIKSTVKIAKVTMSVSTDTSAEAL
# Cannabinoid receptor 2 = Cannabinoid receptor 2 (Homo sapiens, UniProt P34972); assay: Displacement of [3H]- CP55940 from human CB2R expressed in CHO-K1 cells membrane by Cheng-Prusoff equation analysis; type: cell membranes, Cell membrane; conditions: for pKi: read-out: Ki
# Cannabinoid receptor 2, sequence (P34972 whole entry): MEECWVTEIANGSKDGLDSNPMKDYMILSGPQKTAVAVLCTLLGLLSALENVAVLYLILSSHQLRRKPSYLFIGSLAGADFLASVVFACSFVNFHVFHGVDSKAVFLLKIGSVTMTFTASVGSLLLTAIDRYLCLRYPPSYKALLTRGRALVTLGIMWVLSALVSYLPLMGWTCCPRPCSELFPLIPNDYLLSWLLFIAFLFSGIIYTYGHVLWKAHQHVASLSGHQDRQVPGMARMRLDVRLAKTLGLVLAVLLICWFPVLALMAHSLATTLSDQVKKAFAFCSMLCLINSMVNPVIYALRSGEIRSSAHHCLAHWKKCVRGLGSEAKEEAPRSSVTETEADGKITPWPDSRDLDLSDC
# Cannabinoid receptor 1 [2] = target: T1, Cannabinoid receptor 1; assay: Antagonist activity at human CB1R expressed in CHO-K1 cell membranes assessed as stimulation of [35S]-GTPgammaS binding by liquid scintillation counting method; type: functional, Cell membrane; conditions: for pIC50: read-out: IC50; for IC50: cho-k1
# [3] = target: Nitric oxide synthase, inducible (Homo sapiens) (UniProt P35228); assay: Inhibition of recombinant iNOS (unknown origin) assessed as reduction in L-[3H]-citrulline level using L-[3H]-arginine as substrate at 10 uM by Enzymatic NOS activity assay
# Nitric oxide synthase, inducible (Homo sapiens), sequence (P35228 whole entry): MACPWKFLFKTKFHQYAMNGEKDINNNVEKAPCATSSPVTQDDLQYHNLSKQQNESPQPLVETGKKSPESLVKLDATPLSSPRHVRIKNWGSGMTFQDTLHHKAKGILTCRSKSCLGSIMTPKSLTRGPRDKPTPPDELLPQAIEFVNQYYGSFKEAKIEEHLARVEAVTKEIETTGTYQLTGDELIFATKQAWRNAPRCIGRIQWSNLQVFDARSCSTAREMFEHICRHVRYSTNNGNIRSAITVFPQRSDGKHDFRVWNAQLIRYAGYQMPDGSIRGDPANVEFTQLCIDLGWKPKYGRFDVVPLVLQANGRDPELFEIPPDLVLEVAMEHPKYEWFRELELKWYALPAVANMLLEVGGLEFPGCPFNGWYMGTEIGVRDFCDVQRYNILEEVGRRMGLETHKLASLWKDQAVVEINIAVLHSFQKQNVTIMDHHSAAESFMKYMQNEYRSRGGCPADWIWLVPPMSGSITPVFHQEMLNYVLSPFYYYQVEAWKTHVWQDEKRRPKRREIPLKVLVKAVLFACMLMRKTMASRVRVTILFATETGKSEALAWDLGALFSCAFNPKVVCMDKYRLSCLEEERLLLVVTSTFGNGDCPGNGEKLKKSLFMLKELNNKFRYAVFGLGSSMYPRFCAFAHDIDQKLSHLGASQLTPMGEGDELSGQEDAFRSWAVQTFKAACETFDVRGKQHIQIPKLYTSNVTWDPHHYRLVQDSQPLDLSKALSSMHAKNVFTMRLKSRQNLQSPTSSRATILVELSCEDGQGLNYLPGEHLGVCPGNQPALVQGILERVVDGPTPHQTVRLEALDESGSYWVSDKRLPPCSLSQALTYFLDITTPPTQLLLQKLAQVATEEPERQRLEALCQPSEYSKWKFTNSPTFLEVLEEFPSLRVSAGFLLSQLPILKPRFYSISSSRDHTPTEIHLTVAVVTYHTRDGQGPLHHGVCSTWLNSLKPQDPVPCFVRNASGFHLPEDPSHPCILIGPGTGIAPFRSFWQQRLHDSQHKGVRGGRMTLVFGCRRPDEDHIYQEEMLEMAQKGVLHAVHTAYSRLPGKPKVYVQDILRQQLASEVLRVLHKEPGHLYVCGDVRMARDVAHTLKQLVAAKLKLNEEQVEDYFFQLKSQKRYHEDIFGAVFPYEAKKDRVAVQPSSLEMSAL
# [4] = Drug distribution in C57BL/6J mouse plasma at 10 mg/kg, ip incubated for 1 hrs by LC/MS/MS analysis; type: ADME, organism-based; conditions: in vivo
# [5] = Drug distribution in C57BL/6J mouse liver at 10 mg/kg, ip incubated for 1 hrs by LC/MS/MS analysis; type: ADME, organism-based; conditions: in vivo
# [6] = Ratio of drug level in C57BL/6J mouse brain to plasma at 10 mg/kg, ip incubated for 1 hrs by LC/MS/MS analysis; type: ADME, organism-based; conditions: read-out: BPR
# Cannabinoid receptor 1 [7] = target: T1, Cannabinoid receptor 1; assay: Inverse agonist activity at human CB1R expressed in CHO-K1 cell membrane assessed as […] in [35S]GTPgammaS binding; type: functional, cell membranes
# [8] = Drug distribution in C57BL/6J mouse brain at 10 mg/kg, ip incubated for 1 hrs by LC/MS/MS analysis; type: ADME, organism-based; conditions: in vivo
# [9] = Microsomal stability in human liver microsomes assessed as half life at 3 mg/kg, ip by LC-MS/MS analysis; type: ADME, Microsome
# [10] = Protein binding in mouse plasma assessed as […] at 5 uM and incubated for 4 hrs by LC-MS/MS analysis; type: ADME, cell-free; conditions: read-out: PPB
# [11] = Microsomal stability in C57BL/6J mouse liver microsomes assessed as half life at 3 mg/kg, ip by LC-MS/MS analysis; type: ADME, Microsome
# [12] = Stability in C57BL/6J mouse plasma assessed as half life at 3 mg/kg, ip by LC-MS/MS analysis; type: ADME, organism-based
# Mus musculus [13] = assay: Anti-obesity activity in high fat diet-induced obese C57BL/6J mouse assessed as reduction in body weight at 3 mg/kg, ip dosed daily for 1 week; type: functional; conditions: 168 h, time 1 weeks
# Mus musculus [14] = assay: Anti-obesity activity in high fat diet-induced obese C57BL/6J mouse assessed as reduction in food intake at 3 mg/kg, ip dosed daily for 1 week; type: functional, organism-based; conditions: time 1.0 weeks
# [15] = Protein binding in human plasma assessed as […] at 5 uM for 4 hrs by LC-MS/MS analysis; type: ADME, cell-free; conditions: read-out: PPB
# Mus musculus [16] = assay: Anti-obesity activity in high fat diet-induced obese C57BL/6J mouse assessed as reduction in body weight at 10 mg/kg, ip measured every daily for 1 weeks; type: functional; conditions: 168 h
# Mus musculus [17] = assay: Anti-obesity activity in high fat diet-induced obese C57BL/6J mouse assessed as reduction in food intake at 10 mg/kg, ip measured every daily for 1 weeks; type: functional, organism-based
SMILES,pKi (Cannabinoid receptor 1 [1]),pKi (Cannabinoid receptor 2),pIC50 (Cannabinoid receptor 1 [2]),other results
N/C(=N\C(=N\S(=O)(=O)N1CCOCC1)N1CC(c2ccccc2)C(c2ccc(Cl)cc2)=N1)c1ccc(Cl)cc1 (configuration not stated),7.72,< 6.00,7.60,–
CS/C(N)=N/C(=N/S(=O)(=O)N1CCOCC1)N1CC(c2ccccc2)C(c2ccc(Cl)cc2)=N1 (configuration not stated),7.39,< 6.00,7.04,–
CC(C)(C)/C(N)=N/C(=N/S(=O)(=O)N1CCCC1)N1CC(c2ccccc2)C(c2ccc(Cl)cc2)=N1 (configuration not stated),< 6.00,< 6.00,7.21,inhibition [3]: Active
CS/C(N)=N\C(=N\S(=O)(=O)N1CCCCC1)N1CC(c2ccccc2)C(c2ccc(Cl)cc2)=N1 (configuration not stated),7.82,< 7.00,6.78,–
CC(C)(C)/C(N)=N/C(=N/S(=O)(=O)N1CCC(C(F)(F)F)CC1)N1CC(c2ccccc2)C(c2ccc(Cl)cc2)=N1 (configuration not stated),8.96,< 7.00,8.70,Drug uptake [4]: Active; Drug uptake [5]: Active; Kp at 1 h [6]: 0.15; pIC50 (Cannabinoid receptor 1 [7]): 8.74; Drug uptake [8]: Active
C/C(N)=N\C(=N\S(=O)(=O)N1CCCCC1)N1C[C@H](c2ccccc2)C(c2ccc(Cl)cc2)=N1,8.80,7.37,8.40,"half-life [9]: > 2 min; fraction unbound at 4 h, 5 µM [10]: ≤ 0.006; half-life [11]: > 2 min; half-life [12]: < 120 min; inhibition in vivo at 3 mg/kg (Mus musculus [13]): 8%; Activity (Mus musculus [14]): Active; pIC50 (Cannabinoid receptor 1 [7]): 8.70; fraction unbound at 4 h, 5 µM [15]: ≤ 0.006"
C/C(N)=N\C(=N\S(=O)(=O)N1CCC(F)(F)CC1)N1CC(c2ccccc2)C(c2ccc(Cl)cc2)=N1 (configuration not stated),8.47,< 7.00,7.82,–
N/C(=N/C(=N/S(=O)(=O)N1CCCCC1)N1CC(c2ccccc2)C(c2ccc(Cl)cc2)=N1)c1ccc(F)cc1 (configuration not stated),8.19,7.44,8.40,–
N/C(=N\C(=N\S(=O)(=O)N1CCC(F)(F)CC1)N1CC(c2ccccc2)C(c2ccc(Cl)cc2)=N1)c1ccc(F)cc1 (configuration not stated),8.48,7.55,8.36,–
N/C(=N\C(=N\S(=O)(=O)N1CCC(F)(F)CC1)N1CC(c2ccccc2)C(c2ccc(Cl)cc2)=N1)c1ccc(Cl)cc1 (configuration not stated),8.26,< 6.00,8.38,Drug uptake [4]: Active; Drug uptake [5]: Active; Kp at 1 h [6]: 0.14; pIC50 (Cannabinoid receptor 1 [7]): 8.60; Drug uptake [8]: Active
C/C(N)=N/C(=N/S(=O)(=O)N1CCC(C(F)(F)F)CC1)N1CC(c2ccccc2)C(c2ccc(Cl)cc2)=N1 (configuration not stated),8.41,< 7.00,6.56,–
N/C(=N\C(=N\S(=O)(=O)N1CCCC1)N1CC(c2ccccc2)C(c2ccc(Cl)cc2)=N1)c1ccc(F)cc1 (configuration not stated),7.98,< 6.00,6.94,inhibition [3]: Active
CC(C)(C)/C(N)=N\C(=N\S(=O)(=O)N1CCCCC1)N1CC(c2ccccc2)C(c2ccc(Cl)cc2)=N1 (configuration not stated),7.64,< 6.00,6.89,–
C/C(N)=N/C(=N/S(=O)(=O)N1CCCC1)N1CC(c2ccccc2)C(c2ccc(Cl)cc2)=N1 (configuration not stated),8.13,< 6.00,6.86,inhibition [3]: Active
N/C(=N\C(=N\S(=O)(=O)N1CCOCC1)N1CC(c2ccccc2)C(c2ccc(Cl)cc2)=N1)c1ccc(F)cc1 (configuration not stated),7.40,< 6.00,7.72,–
N/C(=N\C(=N\S(=O)(=O)N1CCCC1)N1CC(c2ccccc2)C(c2ccc(Cl)cc2)=N1)c1ccc(Cl)cc1 (configuration not stated),7.12,< 6.00,6.37,inhibition [3]: Active
C/C(N)=N\C(=N\S(=O)(=O)N1CCCCC1)N1CC(c2ccccc2)C(c2ccc(Cl)cc2)=N1 (configuration not stated),8.52,< 7.00,7.24,Drug uptake [4]: Active; Drug uptake [5]: Active; Kp at 1 h [6]: 0.04; Drug uptake [8]: Active
CCN(CC)S(=O)(=O)/N=C(/N=C(/C)N)N1C[C@@H](c2ccccc2)C(c2ccc(Cl)cc2)=N1,–,–,–,Ki (Cannabinoid receptor 1 [1]; cho-k1): Not Active; Ki (Cannabinoid receptor 2; cho-k1): Not Active; IC50 (Cannabinoid receptor 1 [2]): Not Active

SMILES,pKi (Cannabinoid receptor 1 [1]),pKi (Cannabinoid receptor 2),pIC50 (Cannabinoid receptor 1 [2]),other results
CCN(CC)S(=O)(=O)/N=C(/N=C(/C)N)N1C[C@H](c2ccccc2)C(c2ccc(Cl)cc2)=N1,8.92,7.18,8.92,"half-life [9]: > 2 min; fraction unbound at 4 h, 5 µM [10]: ≤ 0.006; half-life [11]: > 2 min; half-life [12]: < 120 min; inhibition in vivo at 10 mg/kg (Mus musculus [16]): 8%; Activity (Mus musculus [17]): Active; pIC50 (Cannabinoid receptor 1 [7]): 9.10; fraction unbound at 4 h, 5 µM [15]: ≤ 0.006"
CCN(CC)S(=O)(=O)/N=C(/N=C(\N)C(C)(C)C)N1CC(c2ccccc2)C(c2ccc(Cl)cc2)=N1 (configuration not stated),8.00,< 6.00,6.43,inhibition [3]: Active
CS/C(N)=N/C(=N/S(=O)(=O)N1CCCC1)N1CC(c2ccccc2)C(c2ccc(Cl)cc2)=N1 (configuration not stated),7.64,< 6.00,6.34,inhibition [3]: Active
CS/C(N)=N/C(=N/S(=O)(=O)N1CCC(C(F)(F)F)CC1)N1CC(c2ccccc2)C(c2ccc(Cl)cc2)=N1 (configuration not stated),8.62,< 7.00,8.44,Drug uptake [4]: Active; Drug uptake [5]: Active; Kp at 1 h [6]: 0.036; Drug uptake [8]: Active
CC(C)(C)/C(N)=N/C(=N/S(=O)(=O)N1CCOCC1)N1CC(c2ccccc2)C(c2ccc(Cl)cc2)=N1 (configuration not stated),< 7.00,< 6.00,7.47,–
CCN(CC)S(=O)(=O)/N=C(/N=C(\N)c1ccc(Cl)cc1)N1CC(c2ccccc2)C(c2ccc(Cl)cc2)=N1 (configuration not stated),7.97,7.15,7.07,inhibition [3]: Active
CS/C(N)=N/C(=N/S(=O)(=O)N1CCC(C(F)(F)F)CC1)N1C[C@@H](c2ccccc2)C(c2ccc(Cl)cc2)=N1,< 6.00,< 6.00,–,IC50 (Cannabinoid receptor 1 [2]): Not Active
CC(C)(C)/C(N)=N/C(=N/S(=O)(=O)N1CCC(F)(F)CC1)N1CC(c2ccccc2)C(c2ccc(Cl)cc2)=N1 (configuration not stated),7.68,< 6.00,8.00,Drug uptake [4]: Active; Drug uptake [5]: Active; Kp at 1 h [6]: 0.14; pIC50 (Cannabinoid receptor 1 [7]): 8.49; Drug uptake [8]: Active
CCN(CC)S(=O)(=O)/N=C(/N=C(/C)N)N1CC(c2ccccc2)C(c2ccc(Cl)cc2)=N1 (configuration not stated),8.23,< 7.00,8.72,Drug uptake [4]: Active; Drug uptake [5]: Active; inhibition [3]: Active; Kp at 1 h [6]: 0.025; Drug uptake [8]: Active
CCN(CC)S(=O)(=O)/N=C(/N=C(\N)c1ccc(F)cc1)N1CC(c2ccccc2)C(c2ccc(Cl)cc2)=N1 (configuration not stated),8.26,< 6.00,6.97,inhibition [3]: Active
C/C(N)=N/C(=N/S(=O)(=O)N1CCOCC1)N1CC(c2ccccc2)C(c2ccc(Cl)cc2)=N1 (configuration not stated),7.51,< 6.00,7.20,–
CCN(CC)S(=O)(=O)/N=C(/N=C(\N)SC)N1CC(c2ccccc2)C(c2ccc(Cl)cc2)=N1 (configuration not stated),7.89,7.15,6.41,inhibition [3]: Active
N/C(=N\C(=N\S(=O)(=O)N1CCC(C(F)(F)F)CC1)N1CC(c2ccccc2)C(c2ccc(Cl)cc2)=N1)c1ccc(F)cc1 (configuration not stated),7.70,7.85,8.56,–
N/C(=N\C(=N\S(=O)(=O)N1CCC(C(F)(F)F)CC1)N1CC(c2ccccc2)C(c2ccc(Cl)cc2)=N1)c1ccc(Cl)cc1 (configuration not stated),8.26,7.70,8.27,–
CS/C(N)=N/C(=N/S(=O)(=O)N1CCC(C(F)(F)F)CC1)N1C[C@H](c2ccccc2)C(c2ccc(Cl)cc2)=N1,9.15,6.48,8.70,"fraction unbound at 4 h, 5 µM [10]: ≤ 0.006; half-life [12]: < 120 min; inhibition in vivo at 10 mg/kg (Mus musculus [16]): 8%; Activity (Mus musculus [17]): Active; pIC50 (Cannabinoid receptor 1 [7]): 8.80; fraction unbound at 4 h, 5 µM [15]: ≤ 0.006"
CS/C(N)=N\C(=N\S(=O)(=O)N1CCC(F)(F)CC1)N1CC(c2ccccc2)C(c2ccc(Cl)cc2)=N1 (configuration not stated),7.85,< 7.00,6.90,–
C/C(N)=N\C(=N\S(=O)(=O)N1CCCCC1)N1C[C@@H](c2ccccc2)C(c2ccc(Cl)cc2)=N1,6.21,< 6.00,–,IC50 (Cannabinoid receptor 1 [2]): Not Active
N/C(=N/C(=N/S(=O)(=O)N1CCCCC1)N1CC(c2ccccc2)C(c2ccc(Cl)cc2)=N1)c1ccc(Cl)cc1 (configuration not stated),8.11,7.77,8.22,–
